Results on five compounds are retold here after ChEMBL document CHEMBL5033996, “Design, Synthesis, and Bioactivity Evaluation of Dual-Target Inhibitors of Tubulin and Src Kinase Guided by Crystal Structure” (J Med Chem, 2021).

The term IC50 denotes the concentration that gives 50% inhibition. Broadly, the Kd is a measure of binding affinity in units of concentration. A word on the bioavailability: it is the share of a dose that reaches the circulation, judged against a reference dose that is usually intravenous. One may read the CL/F as the apparent clearance, not corrected for the fraction that reaches the circulation. One may read the half-life as how long it takes for the measured level to halve. In general, AUC(0-t) refers to exposure summed from dosing to a finite time, without extrapolation to infinity. Read a high AUC(0-t) as more exposure. Usually Cmax stands for the highest concentration seen after dosing. By Tmax is commonly meant the time from dosing to the highest level.

The source made the active and inactive calls. No cut-off for these calls is given here.

A short description of data set [1]: Toxicity in C57 mouse at 40 mg/kg, po administered twice daily. The note with it: in vivo. The format is organism-based.
The test system of data set [2] is SK-OV-3. Nature of the data set: Induction of cell cycle arrest in human SK-OV-3 cells assessed as accumulation of cells at G2/M phase at 10 nM incubated for 24 hrs by PI staining based flow cytometry analysis (reference value: 28.94%). The format is functional. (In general: A flow cytometer gives signals particle by particle.)
Data set [3] concerns SK-OV-3. Nature of the data set: Induction of cell cycle arrest in human SK-OV-3 cells assessed as accumulation od cells at G2/M phase at 5 nM incubated for 24 hrs by PI staining based flow cytometry analysis (reference value: 28.94%). It is filed as functional.
For data set [4], the system named is SK-OV-3. Briefly: Induction of cell cycle arrest in human SK-OV-3 cells assessed as accumulation of cells at G2/M phase at 1 nM incubated for 24 hrs by PI staining based flow cytometry analysis (reference value: 28.94%). It is filed as functional.
The next data set relates to Ramos. Nature of the data set: Antiproliferative activity against human Ramos cells assessed as inhibition of cell proliferation measured after 72 hrs by MTT assay. The format is functional, cell-based.
Data set [5] is described as follows: Toxicity in mouse xenografted with human SK-OV-3 cells assessed as effect on body weight at 5 mg/kg, po administered for 30 days. The settings on record: in vivo, 720 h, time 30 day. The format is organism-based. A general note: A xenograft is tissue or cells of one species grown in another, often human tumour cells in immunodeficient mice.
In another data set the target is Tubulin. Briefly: Binding affinity to tubulin (unknown origin) assessed as dissociation constant by tryptophan based binding assay. It is filed as protein-complex assay, Homo sapiens.
In data set [6] the target is Focal adhesion kinase 1 (Homo sapiens) (UniProt Q05397). Nature of the data set: Inhibition of FAK phosphorylation at […] residue in human SK-OV-3 cells incubated for 24 hrs by Western blot analysis. It is filed as cell-based.
Sequence of Focal adhesion kinase 1 (Homo sapiens) (Q05397 2-1052 limits assumed): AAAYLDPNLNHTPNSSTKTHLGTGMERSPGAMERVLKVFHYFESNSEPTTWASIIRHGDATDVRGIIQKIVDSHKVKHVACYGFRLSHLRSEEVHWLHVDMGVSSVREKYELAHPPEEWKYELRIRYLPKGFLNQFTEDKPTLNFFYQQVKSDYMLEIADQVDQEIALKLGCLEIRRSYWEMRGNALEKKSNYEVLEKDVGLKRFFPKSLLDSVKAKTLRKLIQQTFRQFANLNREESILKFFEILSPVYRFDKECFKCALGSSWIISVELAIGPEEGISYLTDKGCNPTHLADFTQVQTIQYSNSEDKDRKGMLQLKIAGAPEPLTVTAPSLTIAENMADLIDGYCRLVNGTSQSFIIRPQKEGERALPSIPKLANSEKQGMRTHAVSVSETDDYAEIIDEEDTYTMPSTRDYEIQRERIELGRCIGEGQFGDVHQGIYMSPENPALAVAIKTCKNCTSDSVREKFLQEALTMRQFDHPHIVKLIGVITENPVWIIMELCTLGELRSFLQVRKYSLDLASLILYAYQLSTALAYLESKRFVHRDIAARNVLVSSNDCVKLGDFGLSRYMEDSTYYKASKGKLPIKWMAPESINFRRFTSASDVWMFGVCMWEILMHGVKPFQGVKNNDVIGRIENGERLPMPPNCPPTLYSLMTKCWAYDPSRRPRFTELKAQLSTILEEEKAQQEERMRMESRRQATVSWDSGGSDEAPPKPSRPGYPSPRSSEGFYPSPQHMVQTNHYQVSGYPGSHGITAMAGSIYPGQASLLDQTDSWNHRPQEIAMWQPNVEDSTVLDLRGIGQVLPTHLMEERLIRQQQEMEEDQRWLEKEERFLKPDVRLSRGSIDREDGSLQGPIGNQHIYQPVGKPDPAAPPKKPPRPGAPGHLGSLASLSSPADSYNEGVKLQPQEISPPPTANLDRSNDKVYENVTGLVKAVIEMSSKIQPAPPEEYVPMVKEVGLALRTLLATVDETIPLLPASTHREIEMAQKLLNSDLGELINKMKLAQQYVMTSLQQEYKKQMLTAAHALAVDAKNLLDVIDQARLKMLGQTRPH
Data set [7] is described as follows: Intrinsic clearance in human liver microsomes. The format is ADME, Microsome.
The nature of data set [8]: Oral bioavailability in Sprague-Dawley rat at 5 mg/kg measured up to 24 hrs by LC/MS/MS analysis. It is filed as ADME, organism-based. The note with it: in vivo.
Data set [9] relates to SK-OV-3. Briefly: Induction of cell cycle arrest in human SK-OV-3 cells assessed as accumulation of cells at G0/G1 phase at 10 nM incubated for 24 hrs by PI staining based flow cytometry analysis (reference value: 49.60 %). The format is functional.
A short description of data set [10]: Clearance in Sprague-Dawley rat at 5 mg/kg, po measured up to 24 hrs by LC/MS/MS analysis. The format is ADME, organism-based. The settings on record: in vivo.
Data set [11] has as its system SK-OV-3. Briefly: Induction of mitotic block in human SK-OV-3 cells at 10 to 30 nM in presence of colchicine measured immediately by flow cytometry analysis. It is filed as functional, cell-based. The note with it: dose 10-30 nM.
The test system of data set [12] is SK-OV-3. Nature of the data set: Induction of cell cycle arrest in human SK-OV-3 cells assessed as accumulation of cells at G0/G1 phase at 1 nM incubated for 24 hrs by PI staining based flow cytometry analysis (Rvb= 49.60%). The format is functional.
The subject of data set [13] is SK-OV-3. Briefly: Induction of cell cycle arrest in human SK-OV-3 cells assessed as accumulation of cells at S phase at 10 nM incubated for 24 hrs by PI staining based flow cytometry analysis (reference value: 21.4 %). It is filed as functional.
For data set [14], the system named is SK-OV-3. Nature of the data set: Induction of mitotic block in human SK-OV-3 cells at 300 nM measured after 10 hrs by flow cytometry analysis. It is filed as functional, cell-based.
Data set [15] in a line: Half life in human liver microsomes. It is filed as ADME, Microsome. (Microsomes from liver hold many membrane-bound enzymes, among them those of drug oxidation.)
Data set [16] can be described thus: AUC (0 to t) in Sprague-Dawley rat at 5 mg/kg, po measured up to 24 hrs by LC/MS/MS analysis. The note with it: in vivo. The format is ADME, organism-based. Set-up: route oral, dose 5 mg/kg, time <=24.
A short description of data set [17]: Cmax in Sprague-Dawley rat at 5 mg/kg, po measured up to 24 hrs by LC/MS/MS analysis. Also noted: route oral, dose 5 mg/kg, time <=24. The settings on record: in vivo. The format is ADME, organism-based.
The subject of data set [18] is SK-OV-3. Nature of the data set: Induction of cell cycle arrest in human SK-OV-3 cells assessed as accumulation of cells at G0/G1 phase at 5 nM incubated for 24 hrs by PI staining based flow cytometry analysis (reference value: 49.60 %). It is filed as functional.
The subject of data set [19] is SK-OV-3. Briefly: Antiproliferative activity against human SK-OV-3 cells assessed as inhibition of cell proliferation measured after 72 hrs by MTT assay. The format is functional, cell-based. The note with it: SK-OV-3, 72 h.
Data set [20] is described as follows: Half life in Sprague-Dawley rat at 5 mg/kg, po measured up to 24 hrs by LC/MS/MS analysis. It is filed as ADME, organism-based. The settings on record: in vivo.
A short description of data set [21]: Toxicity in mouse xenografted with human SK-OV-3 cells assessed as effect on body weight at 10 mg/kg, po administered for 30 days. The settings on record: in vivo, 720 h, time 30 day. It is filed as organism-based.
The test system of data set [22] is SK-OV-3. Briefly: Induction of cell cycle arrest in human SK-OV-3 cells assessed as accumulation of cells at S phase at 5 nM incubated for 24 hrs by PI staining based flow cytometry analysis (reference value: 21.4 %). The format is functional.
The nature of data set [23]: Tmax in Sprague-Dawley rat at 5 mg/kg, po measured up to 24 hrs by LC/MS/MS analysis. It is filed as ADME, organism-based. The note with it: in vivo.
Data set [24] can be described thus: Antitumor activity against human SK-OV-3 cells xenografted in nude mouse assessed as tumor growth inhibition at 10 mg/kg, po measured every 3 days for 1 month by vernier caliper analysis relative to control. The format is functional. The note with it: SK-OV-3, po, 730 h, time 1 months, read-out: TGI.
The test system of data set [25] is SK-OV-3. Nature of the data set: Induction of cell cycle arrest in human SK-OV-3 cells assessed as accumulation of cells at S phase at 1 nM incubated for 24 hrs by PI staining based flow cytometry analysis (reference value: 21.4 %). It is filed as functional.
A further data set addresses Tubulin (Homo sapiens) (UniProt P68371+Q9H4B7+P0DPH7+P68366+Q13509+Q71U36+P04350+Q3ZCM7+P07437+P68363+Q9BQE3+Q6PEY2+Q13885+Q9BVA1+Q9BUF5). Nature of the data set: Inhibition of tubulin polymerization in human SK-OV-3 cells at 5 uM incubated for 16 hrs by fluorescence microscopic analysis. It is filed as cell-based.
A short description of data set [26]: Antitumor activity against human SK-OV-3 cells xenografted in nude mouse assessed as tumor growth inhibition at 5 mg/kg, po measured every 3 days for 1 month by vernier caliper analysis relative to control. The note with it: SK-OV-3, po, 730 h, time 1 months, read-out: TGI. The format is functional.
Data set [27] concerns the target Proto-oncogene tyrosine-protein kinase Src (Homo sapiens) (UniProt P12931). Briefly: Inhibition of Src kinase phosphorylation at Tyr416/419 residue in human SK-OV-3 cells incubated for 24 hrs by Western blot analysis. It is filed as cell-based.
For another data set, the system named is K562. Nature of the data set: Antiproliferative activity against human K562 cells assessed as inhibition of cell proliferation measured after 72 hrs by MTT assay. The format is functional, cell-based. The note with it: K562, 72 h.
Data set [28] is described as follows: Antitumor activity against mouse C26 cells xenografted in BALB/c mouse assessed as tumor growth inhibition at 10 mg/kg, po measured every 2 days for 10 days by vernier caliper analysis relative to control. The settings on record: 240 h, time 10 day, read-out: TGI. The format is functional.
The test system of data set [29] is SK-OV-3. Nature of the data set: Induction of mitotic block in human SK-OV-3 cells at 10 to 30 nM in absence of colchicine measured immediately by flow cytometry analysis. It is filed as functional, cell-based. The settings on record: dose 10-30 nM.

Sequence of Proto-oncogene tyrosine-protein kinase Src (Homo sapiens) (P12931 2-536 limits assumed): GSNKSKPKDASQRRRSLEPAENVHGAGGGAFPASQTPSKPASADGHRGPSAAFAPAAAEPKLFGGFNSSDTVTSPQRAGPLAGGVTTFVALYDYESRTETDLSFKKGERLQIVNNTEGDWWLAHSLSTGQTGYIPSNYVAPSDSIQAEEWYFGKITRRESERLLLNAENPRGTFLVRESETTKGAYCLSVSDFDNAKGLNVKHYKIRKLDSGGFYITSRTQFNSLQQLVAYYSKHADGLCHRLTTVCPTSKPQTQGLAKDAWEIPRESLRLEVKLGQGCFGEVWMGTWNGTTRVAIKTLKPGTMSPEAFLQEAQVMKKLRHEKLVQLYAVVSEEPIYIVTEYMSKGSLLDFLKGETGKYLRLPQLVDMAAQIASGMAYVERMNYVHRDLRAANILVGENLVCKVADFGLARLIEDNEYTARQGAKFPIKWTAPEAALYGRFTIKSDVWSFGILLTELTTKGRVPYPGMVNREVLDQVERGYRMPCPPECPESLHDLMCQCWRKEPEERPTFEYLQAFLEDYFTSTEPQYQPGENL

As for `O=C(Cc1ccc(-c2ccc(OCCN3CCN(C(=O)CC4CC4)CC3)cc2)cn1)NCc1ccccc1`, the Activity entry in data set [1] is given as “Non-Toxic”; in the data set with SK-OV-3 [2] it was 72.04%; in the data set on SK-OV-3 [3], 39.47%; with SK-OV-3 [4], 32.11%; in data set [5], “Non-Toxic”; in the data set on SK-OV-3 [9], 12.1%. Further, the Activity in the data set on SK-OV-3 [12] is 45.93%; in the data set with SK-OV-3 [13] it was 15.86%; in the data set with SK-OV-3 [18] it was 39.12%; in data set [21] it was “Non-Toxic”; in the data set on SK-OV-3 [22] it was 21.42%; in the data set with SK-OV-3 [25], 21.96%. The IC50 in the data set on Ramos came out at 1.4 nM; in the data set on SK-OV-3 [19], 0.61 nM; in the data set with K562, 1 nM. The equilibrium dissociation constant (Kd) on Tubulin was found to be 610 nM. In addition, the inhibition entry in [6] and in data set [27] was “Dose-Dependent Effect” in each case. Further, in data set [7], the CLH was 49.8 mL·min/g. The bioavailability in data set [8] is 24.3%. This compound also gave a CL/F in data set [10] of 80.2 mL/min/kg. Moreover, the outcome with SK-OV-3 [11] and in the data set on SK-OV-3 [14] was Active. Further, the half-life in [15] is 27.8 min; in data set [20], 231 min. The same compound returned an exposure AUC(0-t) at 24 h in data set [16] of 1050 ng·h/mL. Further, the Cmax in data set [17] amounted to 398 ng/mL. For the same compound, the time of peak concentration (Tmax) in [23] was 19.8 min. Moreover, the inhibition in vivo at 10 mg/kg in data set [24] was determined as 70%; in [28], 71%. The inhibition result on Tubulin (Homo sapiens) is “Active”. Also, in [26], the inhibition in vivo at 5 mg/kg is 52%.
Take `O=C(Cc1ccc(-c2ccc(OCCN3CCN(C(=O)[C@H]4C[C@@H]4F)CC3)cc2)cn1)NCc1ccccc1`: the IC50 in the data set on Ramos is 25.7 nM; with SK-OV-3 [19], 12.6 nM; in the data set with K562 it was 29.4 nM.
On to `COc1cc2c(c(OC)c1OC)-c1ccc(OC)c(=O)cc1[C@@H](NC(C)=O)CC2`, for which the outcome in the data set with SK-OV-3 [29] was inactive.
With `O=C(Cc1ccc(-c2ccc(OCCNC3CC3)cc2)cn1)NCc1ccccc1`, the IC50 in the data set with Ramos was found to be 98.1 nM; in the data set with SK-OV-3 [19], 5.2 nM; with K562, 29.3 nM.
On the same counts, the results for `O=C(Cc1ccc(-c2ccc(OCCCN3CCOCC3)cc2)cn1)NCc1ccccc1` are 129 nM, 15.6 nM and 50.9 nM.
